# According to ChEMBL document CHEMBL1145549, “Constrained NBMPR analogue synthesis, pharmacophore mapping and 3D-QSAR modeling of equilibrative nucleoside transporter 1 (ENT1) inhibitory activity” (Bioorg Med Chem, 2008):
# Target: T1, Equilibrative nucleoside transporter 1 (Homo sapiens, UniProt Q99808)
# T1 sequence (Q99808 whole entry): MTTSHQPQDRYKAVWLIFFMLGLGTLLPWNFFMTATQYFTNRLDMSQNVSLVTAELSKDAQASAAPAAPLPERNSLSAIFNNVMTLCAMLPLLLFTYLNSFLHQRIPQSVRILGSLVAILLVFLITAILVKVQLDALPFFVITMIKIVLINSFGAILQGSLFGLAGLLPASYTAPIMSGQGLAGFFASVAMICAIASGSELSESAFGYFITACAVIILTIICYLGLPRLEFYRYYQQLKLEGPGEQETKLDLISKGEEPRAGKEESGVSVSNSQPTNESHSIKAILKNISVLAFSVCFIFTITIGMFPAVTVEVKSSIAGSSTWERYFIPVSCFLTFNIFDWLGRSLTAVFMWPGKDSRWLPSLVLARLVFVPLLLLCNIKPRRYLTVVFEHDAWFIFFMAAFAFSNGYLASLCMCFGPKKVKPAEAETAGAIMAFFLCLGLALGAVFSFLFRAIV
# Test: Binding affinity to ENT1 transporter
row,IC50 [µM],Structure (SMILES)
1,1740,O=[N+]([O-])c1cccc2c1CN(c1ncnc3c1nc1n3[C@@H]3O[C@H](CO1)[C@@H](O)[C@H]3O)CC2
2,21.4,CC(C)(Sc1ncnc2c1ncn2[C@@H]1O[C@H](CO)[C@@H](O)[C@H]1O)c1ccccc1
3,1.55,OC[C@H]1O[C@@H](n2cnc3c(SCC4CCCCC4)ncnc32)[C@H](O)[C@@H]1O
4,245,O=[N+]([O-])c1ccc2c(c1)CCN(c1ncnc3c1nc1n3[C@@H]3O[C@H](CO1)[C@@H](O)[C@H]3O)C2
5,2.09,OC[C@H]1O[C@@H](n2cnc3c(OCc4ccccc4)ncnc32)[C@H](O)[C@@H]1O
6,912,Nc1ncnc2c1ncn2[C@@H]1O[C@H](COCCOCCNc2ncnc3c2ncn3[C@@H]2O[C@H](CO)[C@@H](O)[C@H]2O)[C@@H](O)[C@H]1O
7,0.0275,O=[N+]([O-])c1ccc(CNc2ncnc3c2ncn3[C@@H]2O[C@H](CO)[C@@H](O)[C@H]2O)cc1
8,257,CC(C)Nc1ncnc2c1ncn2[C@@H]1O[C@H](CO)[C@@H](O)[C@H]1O
9,7410,O=[N+]([O-])c1cccc2c1CCN(c1ncnc3c1nc1n3[C@@H]3O[C@H](CO1)[C@@H](O)[C@H]3O)C2
10,13.8,C=CCSc1ncnc2c1ncn2[C@@H]1O[C@H](CO)[C@@H](O)[C@H]1O
11,0.0055,O=[N+]([O-])c1ccc2c(c1)CN(c1ncnc3c1ncn3[C@@H]1O[C@H](CO)[C@@H](O)[C@H]1O)CC2
12,3.63,O=[N+]([O-])c1cccc2c1CN(c1ncnc3c1ncn3[C@@H]1O[C@H](CO)[C@@H](O)[C@H]1O)CC2
13,0.182,O=[N+]([O-])c1ccc2c(c1)CCN(c1ncnc3c1ncn3[C@@H]1O[C@H](CO)[C@@H](O)[C@H]1O)C2
14,0.0214,Nc1nc(SCc2ccc([N+](=O)[O-])cc2)c2ncn([C@@H]3O[C@H](CO)[C@@H](O)[C@H]3O)c2n1
15,13.5,CCCCCNc1ncnc2c1ncn2[C@@H]1O[C@H](CO)[C@@H](O)[C@H]1O
16,57.5,CCSc1ncnc2c1ncn2[C@@H]1O[C@H](CO)[C@@H](O)[C@H]1O
17,17.8,OC[C@H]1O[C@@H](n2cnc3c(NCc4cccs4)ncnc32)[C@H](O)[C@@H]1O
18,3.02,O=[N+]([O-])c1cccc2c1CCN(c1ncnc3c1ncn3[C@@H]1O[C@H](CO)[C@@H](O)[C@H]1O)C2
19,6.31,OC[C@H]1O[C@@H](n2cnc3c(SC4CCCCC4)ncnc32)[C@H](O)[C@@H]1O
20,0.309,CN(Cc1ccc([N+](=O)[O-])cc1)c1ncnc2c1ncn2[C@@H]1O[C@H](CO)[C@@H](O)[C@H]1O
21,1.82,OC[C@H]1O[C@@H](n2cnc3c(N4CCc5ccccc5C4)ncnc32)[C@H](O)[C@@H]1O
22,0.331,O=[N+]([O-])c1ccc2c(c1)CN(c1ncnc3c1nc1n3[C@@H]3O[C@H](CO1)[C@@H](O)[C@H]3O)CC2
23,1.7,OC[C@H]1O[C@@H](n2cnc3c(SCc4ccccc4)ncnc32)[C@H](O)[C@@H]1O [6-BENZYLTHIOINOSINE]
24,229,Nc1ncnc2c1c(I)cn2[C@@H]1O[C@H](CO)[C@@H](O)[C@H]1O [IODOTUBERCIDIN]
25,36.3,OC[C@H]1O[C@@H](n2cnc3c(NCc4ccco4)ncnc32)[C@H](O)[C@@H]1O [KINETIN RIBOSIDE]
26,10.7,OC[C@H]1O[C@@H](n2cnc3c(NCc4ccccc4)ncnc32)[C@H](O)[C@@H]1O [N6-BENZYLADENOSINE]
27,32.4,OC[C@H]1O[C@@H](n2cnc3c(Nc4ccccc4)ncnc32)[C@H](O)[C@@H]1O [N6-PHENYLADENOSINE]

# Target: T1, Equilibrative nucleoside transporter 1
# Test: Displacement of 5-(SAENTA)-X8-fluorescein from human ENT1 transporter in human K562 cells
# Type: cell-based
row,Ki [µM],Structure (SMILES)
1,> 1,O=[N+]([O-])c1cccc2c1CN(c1ncnc3c1nc1n3[C@@H]3O[C@H](CO1)[C@@H](O)[C@H]3O)CC2
2,> 1,O=[N+]([O-])c1ccc2c(c1)CCN(c1ncnc3c1nc1n3[C@@H]3O[C@H](CO1)[C@@H](O)[C@H]3O)C2
3,> 1,O=[N+]([O-])c1cccc2c1CCN(c1ncnc3c1nc1n3[C@@H]3O[C@H](CO1)[C@@H](O)[C@H]3O)C2
4,0.0189,O=[N+]([O-])c1ccc2c(c1)CN(c1ncnc3c1nc1n3[C@@H]3O[C@H](CO1)[C@@H](O)[C@H]3O)CC2
